Experimental data reported in patent US8324264B1, “Inhibitors of bacterial biofilms and related methods” (Sequoia Sciences, Inc., priority 2011, dated 2012).
Values after ≈ are worked out from the molar mass of the structure shown. Structures can show the parent of a compound that is named as a salt.

Experiments:
E. coli biofilms = experiment: Biofilm growth assay (spreading biofilm on semi-solid agar), E. coli; format: cell-based; settings: biofilm growth assay, overnight 37° C., vs negative controls, Tables 1-5; for IC85: Escherichia coli, read-out: E. coli: concentration that reduces the area of the spreading biofilm by greater than or equal to 85%
In short: (§1)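 Values are compound concentrations (μg/ml) that cut the spreading-biofilm zone area by ≥85% relative to negative controls after overnight 37 °C growth from 5 μL central inoculum. E. coli plates: LB, 0.6% agar, 0.5% glucose; P. aeruginosa plates: M8 agar plus 0.2% glucose, 100 μM CaCl2, 1 mM MgSO4, 0.5% Casamino acids.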

P. aeruginosa biofilms = experiment: Biofilm growth assay (spreading biofilm on semi-solid agar), P. aeruginosa; format: cell-based; settings: biofilm growth assay, overnight 37° C., vs negative controls, Tables 1-5; for IC85: Pseudomonas aeruginosa, read-out: P. aeruginosa: concentration that reduces the area of the spreading biofilm by greater than or equal to 85%
In short: as §1

Compound | melting point | IC85 (E. coli biofilms) | IC85 (P. aeruginosa biofilms) | also measured
CC1(C)CC[C@]2(C(=O)Nc3cc(O)[nH]n3)CC[C@]3(C)C(=CCC4[C@@]5(C)Cc6c(n[nH]c6N)C(C)(C)C5CC[C@]43C)C2C1 (stereo partly drawn) (as salt: ammonium) [Compound 66, (4aS,6aS,6bR,13aR)-12-Amino-N-(5-hydroxy-1H-pyrazol-3-yl)-2,2,6a,6b,9,9,13a-heptamethyl-2,3,4,4a,5,6,6a,6b,7,8,8a,9,11,13,13a,13b,14,15b-octadecahydro-1H-chryseno[1,2-f]indazole-4-a-carboxamide] | 275 to 295 °C (dec.) | – | – | –
CC1(C)CC[C@]2(C(=O)Nc3nnc(N)s3)CC[C@]3(C)C(=CCC4[C@@]5(C)Cc6c(n[nH]c6N)C(C)(C)C5CC[C@]43C)C2C1 (stereo partly drawn) (as salt: ammonium) [Compound 71, (4aS,6aS,6bR,13aR)-12-Amino-N-(5-amino-1,3,4-thiadiazol-2-yl)-2,2,6a,6b,9,9,13a-heptamethyl-2,3,4,4a,5,6,6a,6b,7,8,8a,9,11,13,13a,13b,14,15b-octadecahydro-1H-chryseno[1,2-f]indazole-4-a-carboxamide] | 280 to 300 °C (dec.) | – | – | –
CC1(C)CC[C@]2(C(=O)n3ccnc3N)CC[C@]3(C)C(=CCC4[C@@]5(C)Cc6c(n[nH]c6N)C(C)(C)C5CC[C@]43C)C2C1 (stereo partly drawn) (as salt: ammonium) [Compound 73, (2-Amino-1H-imidazol-1-yl)((4aS,6aS,6bR,13aR)-12-amino-2,2,6a,6b,9,9,13a-heptamethyl-2,3,4,4a,5,6,6a,6b,7,8,8a,9,11,13,13a,13b,14,15b-octadecahydro-1H-chryseno[1,2-f]indazol-4-a-yl)methanone] | 230 to 250 °C (dec.) | – | – | –
CC1(C)CC[C@]2(C(=O)Nc3nnc(S)s3)CC[C@]3(C)C(=CCC4[C@@]5(C)Cc6c(n[nH]c6N)C(C)(C)C5CC[C@]43C)C2C1 (stereo partly drawn) (as salt: ammonium) [Compound 74, (4aS,6aS,6bR,13aR)-12-Amino-N-(5-mercapto-1,3,4-thiadiazol-2-yl)-2,2,6a,6b,9,9,13a-heptamethyl-2,3,4,4a,5,6,6a,6b,7,8,8a,9,11,13,13a,13b,14,15b-octadecahydro-1H-chryseno[1,2-f]indazole-4-a-carboxamide] | > 300 °C | – | – | –
CC1(C)CC[C@]2(C(=O)n3cnc(S)n3)CC[C@]3(C)C(=CCC4[C@@]5(C)Cc6c(n[nH]c6N)C(C)(C)C5CC[C@]43C)C2C1 (stereo partly drawn) (as salt: ammonium) [Compound 76, ((4aS,6aS,6bR,13aR)-12-Amino-2,2,6a,6b,9,9,13a-heptamethyl-2,3,4,4a,5,6,6a,6b,7,8,8a,9,11,13,13a,13b,14,15b-octadecahydro-1H-chryseno[1,2-f]indazol-4-a-yl)(3-mercapto-1H-1,2,4-triazol-1-yl)methanone] | 260 to 280 °C (dec.) | – | – | –
Cc1nnc(S)n1NC(=O)[C@]12CCC(C)(C)CC1C1=CCC3[C@@]4(C)Cc5c(n[nH]c5N)C(C)(C)C4CC[C@@]3(C)[C@]1(C)CC2 (stereo partly drawn) (as salt: ammonium) [Compound 77, (4aS,6aS,6bR,13aR)-12-Amino-N-(3-mercapto-5-methyl-4H-1,2,4-triazol-4-yl)-2,2,6a,6b,9,9,13a-heptamethyl-2,3,4,4a,5,6,6a,6b,7,8,8a,9,11,13,13a,13b,14,15b-octadecahydro-1H-chryseno[1,2-f]indazole-4-a-carboxamide] | 250 to 270 °C (dec.) | – | – | –
CC1(C)CC[C@]2(c3n[nH]c(O)c3CCN)CC[C@]3(C)C(=CCC4[C@@]5(C)Cc6c(n[nH]c6N)C(C)(C)[C@@H]5CC[C@]43C)[C@@H]2C1 (stereo partly drawn) (as salt: ammonium) [Compound 84, 3-((4aS,6aS,6bR,13aR)-12-Amino-2,2,6a,6b,9,9,13a-heptamethyl-2,3,4,4a,5,6,6a,6b,7,8,8a,9,11,13,13a,13b,14,15b-octadecahydro-1H-chryseno[1,2-f]indazol-4-a-yl)-4-(2-aminoethyl)-1H-pyrazol-5-ol] | 250 to 260 °C (dec.) | – | – | –
CC1(C)CC[C@]2(c3n[nH]c(O)c3N3CCOCC3)CC[C@]3(C)C(=CCC4[C@@]5(C)Cc6c(n[nH]c6N)C(C)(C)[C@@H]5CC[C@]43C)[C@@H]2C1 (stereo partly drawn) (as salt: ammonium) [Compound 88, 3-((4aS,6aS,6bR,13aR)-12-Amino-2,2,6a,6b,9,9,13a-heptamethyl-2,3,4,4a,5,6,6a,6b,7,8,8a,9,11,13,13a,13b,14,15b-octadecahydro-1H-chryseno[1,2-f]indazol-4-a-yl)-4-morpholino-1H-pyrazol-5-ol] | > 300 °C | – | – | –
C[C@H]1[C@H](C)CC[C@]2(C(=O)O)CC[C@]3(C)C(=CCC4[C@@]5(C)Cc6c(n[nH]c6N)C(C)(C)[C@@H]5CC[C@]43C)[C@H]12 (stereo partly drawn) (as salt: ammonium) [Example 2, (4aS,6aS,6bR,13aR)-12-Amino-2,2,6a,6b,9,9,13a-heptamethyl-2,3,4,4a,5,6,6a,6b,7,8,8a,9,11,13,13a,13b,14,15b-octadecahydro-1H-chryseno[1,2-f]indazole-4-a-carboxylic acid] | 258 to 278 °C | – | – | –
C[C@@H]1c2n[nH]c(N)c2C[C@]2(C)C3CC=C4[C@@H]5CC(C)(C)CC[C@]5(C(=O)O)CC[C@@]4(C)[C@]3(C)CC[C@@H]12 (stereo partly drawn) (as salt: ammonium) [Example 3, (4aS,6aS,6bR,8aS,9S,13aS,15bS)-12-Amino-2,2,6a,6b,9,13a-hexamethyl-2,3,4,4a,5,6,6a,6b,7,8,8a,9,11,13,13a,13b,14,15b-octadecahydro-1H-chryseno[1,2-f]indazole-4-a-carboxylic acid] | > 300 °C | – | – | –
CN(C)c1[nH]nc2c1C[C@@]1(C)C(CC[C@]3(C)C1CC=C1C4CC(C)(C)CC[C@]4(C(=O)O)CC[C@]13C)C2(C)C (some centres unmarked) [J] | – | > 16 µg/mL | > 16 µg/mL | –
CC1(C)CC[C@]2(C(=O)O)CC[C@]3(C)C(=CC[C@@H]4[C@@]5(C)Cc6c(noc6N)C(C)(C)[C@@H]5CC[C@]43C)[C@@H]2C1 [K] | – | > 8 µg/mL | > 8 µg/mL | –
CC1(C)CC[C@]2(C(=O)O)CC[C@]3(C)[C@H](C(=O)C=C4[C@@]5(C)C=C(C#N)C(=O)C(C)(C)[C@@H]5CC[C@]43C)[C@@H]2C1 [L] | – | > 16 µg/mL | > 16 µg/mL | –
CC1(C)CC[C@]2(C(=O)O)CC[C@]3(C)C(C(=O)C=C4[C@@]5(C)Cc6c(n[nH]c6N)C(C)(C)[C@@H]5CC[C@]43C)[C@@H]2C1 (some centres unmarked) [M] | – | 8 µg/mL (≈ 15.8 µM) | 8 µg/mL (≈ 15.8 µM) | –
CC1(C)CC[C@]2(C(=O)O)CC[C@]3(C)C(=C(CO)CC4[C@@]5(C)Cc6c(n[nH]c6N)C(C)(C)[C@@H]5CC[C@]43C)[C@@H]2C1 (some centres unmarked) [N] | – | 8 µg/mL (≈ 15.3 µM) | 8 µg/mL (≈ 15.3 µM) | –
C[C@H]1[C@H](C)CC[C@]2(C(=O)O)CC[C@]3(C)C(=CC[C@@H]4[C@@]5(C)CC[C@H](O)C(C)(C)[C@@H]5CC[C@]43C)[C@H]12 [Ursolic acid, ursolic acid, reference compound] | – | 8 µg/mL (≈ 17.5 µM) | 8 µg/mL (≈ 17.5 µM) | –
C[C@H]1[C@H](C)CC[C@]2(CO)CC[C@]3(C)C(=CC[C@@H]4[C@@]5(C)CC[C@H](O)C(C)(C)[C@@H]5CC[C@]43C)[C@H]12 [Uvaol, reference compound] | – | > 8 µg/mL | > 128 µg/mL | –
Lupeol [reference compound] | – | – | – | E. coli: concentration that reduces the area of the spreading biofilm by greater than or equal to 85% (E. coli biofilms): >8 µg/mL; P. aeruginosa: concentration that reduces the area of the spreading biofilm by greater than or equal to 85% (P. aeruginosa biofilms): >16 µg/mL
